Non-standard residues stand in square brackets, D forms with d. Residues, ends and D or L forms follow the SMILES beside them. *: point of attachment. Doxorubicin(3'-N) = COc1cccc2c1C(=O)c1c(O)c3c(c(O)c1C2=O)C[C@@](O)(C(=O)CO)C[C@@H]3O[C@H]1C[C@H](N*)[C@H](O)[C@H](C)O1; Decanoyl(3,6,9-trioxa) = COCCOCCOCC(=O)*; Glyceroyl(2S) = O=C([C@@H](O)CO)*; Glyceroyl(2R) = O=C([C@H](O)CO)*; hArg = N=C(N)NCCCC[C@H](N)C(=O)O; Chg = N[C@H](C(=O)O)C1CCCCC1; hSer = N[C@@H](CCO)C(=O)O; X3 = O=C(C(O)CO)*
What was measured:
[1] = Solubility remarks (INSOLUBLE, PS, PP) printed beside the assay results of Tables 2-4; assay type: physicochemical; conditions: DOX conjugate in cytotoxicity test
[2] = molecular target: T1, enzymatically active free PSA (Homo sapiens, UniProt P07288); test: Recognition (cleavage) of oligopeptide-doxorubicin conjugates by free PSA, HPLC; assay type: biochemical; conditions: DOX conjugate; for Time to 50% Substrate Cleavage by York PSA: PSA digestion buffer pH7.4, 140 mM NaCl, molar ratio to PSA 100 to 1
T1 construct: required for 50% cleavage of the noted oligopeptides with enzymatically active free PSA
Experimental: If no salt is indicated for the conjugate, the free conjugate was tested.

DuPRO cells = test: In vitro cytotoxicity, Alamar Blue assay, DuPRO; assay type: cell-based; conditions: value in parentheses beside the LNCaP value, read-out: DuPRO cell kill EC 50
Experimental: (§1) The cytotoxicities of the cleaveable oligopeptide-doxorubicin conjugates, prepared as described in Examples 3-6, against a line of cells which is known to be killed by unmodified doxorubicin was assessed with an Alamar Blue assay. Specifically, cell cultures of LNCap prostate tumor cells or DuPRO cells in 96 well plates was diluted with medium containing various concentrations of a given conjugate (final plate well volume of 200 μl ). The cells were incubated for 3 days at 37° C., 20 μl of Alamar Blue is added to the assay well. The cells were further incubated and the assay plates were read on a EL-310 ELISA reader at the dual wavelengths of 570 and 600 nm at 4 and 7 hours after addition of Alamar Blue. Relative percentage viability at the various concentration of conjugate tested was then calculated versus control (no conjugate) cultures. If no salt is indicated, the free conjugate was tested.

[3] = tested on: LNCap prostate tumor cells; test: In vitro cytotoxicity, Alamar Blue assay, LNCaP; assay type: cell-based; conditions: 72 HRS, read-out: LNCaP Cell Kill in 72 HRS, {48 HRS} EC 50
Experimental: as §1

T1 sequence (P07288 25-261): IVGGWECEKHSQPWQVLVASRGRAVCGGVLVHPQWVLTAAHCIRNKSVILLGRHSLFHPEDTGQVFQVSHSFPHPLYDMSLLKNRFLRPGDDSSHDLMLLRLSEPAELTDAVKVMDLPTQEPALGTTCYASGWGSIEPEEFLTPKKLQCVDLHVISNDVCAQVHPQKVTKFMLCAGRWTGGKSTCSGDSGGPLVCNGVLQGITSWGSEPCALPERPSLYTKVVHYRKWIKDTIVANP

Row | SMILES | Solubility remark in Table 4 [1] | Substrate cleavage by York PSA at 4 HOUR ([2]; 4 hours) [%] | EC50 (DuPRO cells) [µM] | EC50 [3] [µM] | Substrate cleavage by York PSA at 3 HOUR ([2]; 3 hours) [%] | Time to 50% Substrate Cleavage by York PSA [2] [min]
1 | COCCOCCOCC(=O)N[C@@H](CCCCNC(=N)N)C(=O)N[C@H](C(=O)N[C@@H](CCC(N)=O)C(=O)N[C@@H](CO)C(=O)N[C@@H](CC(C)C)C(=O)N[C@H]1C[C@H](O[C@H]2C[C@](O)(C(=O)CO)Cc3c(O)c4c(c(O)c32)C(=O)c2c(OC)cccc2C4=O)O[C@@H](C)[C@H]1O)C1CCCCC1 [PEG(2)-HomoRChgQ-SL-DOX (3′), PEG(2)-hArgChgGln-SerLeu-DOX (3′)] ({Decanoyl(3,6,9-trioxa)}-[hArg][Chg]QSL-{Doxorubicin(3'-N)}) | INSOLUBLE | 12 |  |  |  | 
2 | COc1cccc2c1C(=O)c1c(O)c3c(c(O)c1C2=O)C[C@@](O)(C(=O)CO)C[C@@H]3O[C@H]1C[C@H](NC(=O)[C@@H](CC(C)C)NC(=O)[C@H](CO)NC(=O)[C@H](CCC(N)=O)NC(=O)[C@@H](NC(=O)[C@H](CO)NC(=O)[C@H](CO)NC(=O)[C@@H](O)CO)C2CCCCC2)[C@H](O)[C@H](C)O1 [(l)(2,3-dihydroxypropionyl)SerSerChgGln-Ser(dLeu)-DOX (3′)] ({Glyceroyl(2S)}-SS[Chg]QS[dL]-{Doxorubicin(3'-N)}) |  |  | > 100 | > 100 | 22 | 
3 | COc1cccc2c1C(=O)c1c(O)c3c(c(O)c1C2=O)C[C@@](O)(C(=O)CO)C[C@@H]3O[C@H]1C[C@H](NC(=O)[C@H](CC(C)C)NC(=O)[C@H](CO)NC(=O)[C@H](CCC(N)=O)NC(=O)[C@@H](NC(=O)[C@H](CO)NC(=O)[C@H](CO)NC(=O)[C@H](CCCCNC(=N)N)NC(=O)[C@@H](O)CO)C2CCCCC2)[C@H](O)[C@H](C)O1 [(l)(2,3-dihydroxypropionyl)hArgSerSerChgGlnSerLeu-DOX (3′)] ({Glyceroyl(2S)}-[hArg]SS[Chg]QSL-{Doxorubicin(3'-N)}) |  |  | > 100 | 7.5 |  | 12
4 | COc1cccc2c1C(=O)c1c(O)c3c(c(O)c1C2=O)C[C@@](O)(C(=O)CO)C[C@@H]3O[C@H]1C[C@H](NC(=O)[C@H](CC(C)C)NC(=O)[C@H](CO)NC(=O)[C@H](CCC(N)=O)NC(=O)[C@@H](NC(=O)[C@H](CO)NC(=O)[C@H](CO)NC(=O)[C@H](CO)NC(=O)[C@H](O)CO)C2CCCCC2)[C@H](O)[C@H](C)O1 [N-2(R)-2,3-dihydroxypropionyl-Ser-Ser-Ser-Chg-Gln-Ser-Leu-Dox] ({Glyceroyl(2R)}-SSS[Chg]QSL-{Doxorubicin(3'-N)}) |  |  | > 100 | 5.8 |  | 55
5 | COc1cccc2c1C(=O)c1c(O)c3c(c(O)c1C2=O)C[C@@](O)(C(=O)CO)C[C@@H]3O[C@H]1C[C@H](NC(=O)[C@H](CC(C)C)NC(=O)[C@H](CO)NC(=O)[C@H](CCC(N)=O)NC(=O)[C@@H](NC(=O)[C@H](CO)NC(=O)[C@H](CO)NC(=O)[C@H](CCO)NC(=O)C(O)CO)C2CCCCC2)[C@H](O)[C@H](C)O1 (some centres unmarked) [(2,3-dihydroxypropionyl)-hSerSerSerChgGln-SerLeu-DOX (3′)] (X3-[hSer]SS[Chg]QSL-{Doxorubicin(3'-N)}) |  |  | 90 | 5.1 |  | 35
6 | COc1cccc2c1C(=O)c1c(O)c3c(c(O)c1C2=O)C[C@@](O)(C(=O)CO)C[C@@H]3O[C@H]1C[C@H](NC(=O)[C@H](CC(C)C)NC(=O)[C@H](CO)NC(=O)[C@H](CCC(N)=O)NC(=O)[C@@H](NC(=O)[C@H](CCCCNC(=N)N)NC(=O)[C@H](CO)NC(=O)[C@@H](O)CO)C2CCCCC2)[C@H](O)[C@H](C)O1 [(l) 2,3-dihydroxypropionyl-SerhArgChgGln-SerLeu-DOX (3′)] ({Glyceroyl(2S)}-S[hArg][Chg]QSL-{Doxorubicin(3'-N)}) |  |  | > 100 | 9.4 |  | 15

From US6391305B1, “Conjugates useful in the treatment of prostate cancer” (priority 1999, dated 2002)
